The values below come from patent publication US20040102423A1, “Spironolactone and angiotensin II antagonist combination therapy for treatment of congestive heart failure” (G.D. Searle & Co., priority 1995, published 2004).

pIC50: −log10 of the molar value.

For assay [1], the target named is angiotensin II AT1 receptor. The experiment in a line: Assay A: Angiotensin II binding activity, rat uterine membrane preparation, 125I-AII displacement.
Assay [2] has as its system rabbit aortic rings. The assay is described as follows: Assay B: In vitro vascular smooth muscle response for AII (antagonist activity, pA2). Type of assay: cell-based. As to conditions: Oryctolagus cuniculus, two values in a cell = two determinations. On the procedure:
Assay B: In Vitro Vascular Smooth Muscle-Response for AII
The compounds of the invention were tested for antagonist activity in rabbit aortic rings. Male New Zealand white rabbits (2-2.5 kg) were sacrificed using an overdose of pentobarbital and exsanguinated via the carotid arteries. The thoracic aorta was removed, cleaned of adherent fat and connective tissue and then cut into 3-mm ring segments. The endothelium was removed from the rings by gently sliding a rolled-up piece of filter paper into the vessel lumen. The rings were then mounted in a water-jacketed tissue bath, maintained at 37° C., between moveable and fixed ends of a stainless steel wire with the moveable end attached to an FT03 Grass transducer coupled to a Model 7D Grass Polygraph for recording isometric force responses. The bath was filled with 20 ml of oxygenated (95% oxygen/5% carbon dioxide) Krebs solution of the following composition (mM): 130 NaCl, 15 NaHCO3, […], 1.2 NaH2PO4, 1.2 MgSO4, 2.5 CaCl2, and 11.4 glucose. The preparations were equilibrated for one hour before approximately one gram of passive tension was placed on the rings. Angiotensin II concentration-response curves were then recorded (3×10^−10 to 1×10^−5 M). Each concentration of AII was allowed to elicit its maximal contraction, and then AII was washed out repeatedly for 30 minutes before rechallenging with a higher concentration of AII. Aorta rings were exposed to the test antagonist at 10^−5 M for 5 minutes before challenging with AII. Adjacent segments of the same aorta ring were used for all concentration-response curves in the presence or absence of the test antagonist. The effectiveness of the test compound was expressed in terms of pA2 values and were calculated according to H. O. Schild [Br. J. Pharmacol. Chemother., 2, 189-206 (1947)]. The pA2 value is […] which increases the EC50 value for AII by a factor of two. Each test antagonist was evaluated in aorta rings from two rabbits.

One may read the pIC50 as the IC50 on a negative log10 scale, so that one unit is a factor of ten. The low end stands for a large IC50, the high end for a small IC50. For orientation: Kb means the equilibrium dissociation constant of an antagonist, usually derived from a functional assay. Low readings indicate higher antagonist affinity, high ones lower antagonist affinity. On to `CCCCc1nc(Cl)nn1Cc1ccc(-c2ccccc2-c2nnn[nH]2)cc1` [Compound 18], for which the negative-log IC50 (pIC50) in assay [1] is 6.01. The molecule further showed a Kb in assay [2] of 724 nM.
For `CCCCc1nn(C(=O)CCC)c(=O)n1Cc1ccc(-c2ccccc2-c2nn[nH]n2)cc1` [Compound 106], the negative-log IC50 (pIC50) in assay [1] was 7.32. For the same molecule, in assay [2], the antagonist equilibrium constant (Kb) was 20 nM.
Taken in the same sequence, the figures for `CCCCc1nc(Cl)nn1Cc1ccc(-c2ccccc2C(=O)O)cc1` [Compound 17] were 8.40 and 2.29 nM.
Regarding `CCCCn1nc(/C=C/c2cccs2)nc1Cc1ccc(-c2ccccc2-c2nnn[nH]2)nc1` [Compound 165], the negative-log IC50 (pIC50) in assay [1] was 6.39. The same molecule gave a Kb in assay [2] of 126 nM.
As for `CCCCc1nc(C(=O)O)nn1Cc1ccc(-c2ccccc2-c2nnn[nH]2)cc1` [Compound 63], the negative logarithm of the IC50 (pIC50) in assay [1] is 7.21. This molecule also showed a Kb in assay [2] of 17 nM.
In turn, `CCCCc1nn(CCC2CCCCC2)c(=O)n1Cc1ccc(-c2ccccc2-c2nn[nH]n2)cc1` [Compound 100] showed a pIC50 in assay [1] of 8.36. For the same molecule, the Kb in assay [2] was 0.398 nM.
In assay [1], `CCCCc1nn(CC(=O)C23CC4CC(CC(C4)C2)C3)c(=O)n1Cc1ccc(-c2ccccc2-c2nn[nH]n2)cc1` [Compound 91] gave a pIC50 of 7.52. In assay [2], this molecule had an antagonist equilibrium constant (Kb) of 2.51 nM.
Molecule `CCCCc1cn(CCc2ccccc2)c(=O)n1Cc1ccc(-c2ccccc2-c2nnn[nH]2)cc1` [Compound 144] gave a negative-log IC50 (pIC50) in assay [1] of 10.06. In assay [2], this molecule gave a Kb of 20 nM.
In assay [1], `CCCCc1nn(CCCc2ccccc2)c(=O)n1Cc1ccc(-c2ccccc2-c2nn[nH]n2)cc1` [Compound 92] gave a pIC50 of 7.46. In addition, the Kb in assay [2] is 12.6 nM.
In assay [1], `CCCCc1nc(CCCNC(=O)OC(C)(C)C)n(Cc2ccc(-c3ccccc3-c3nnn[nH]3)cc2)n1` [Compound 78] gave a pIC50 of 7.00. The antagonist equilibrium constant (Kb) in assay [2] is 100 nM.
In the case of `CCCCc1nc(CCCC)n(Cc2ccc(-n3c(Cl)cc(Cl)c3-c3nnn[nH]3)cc2)n1` [Compound 154], the negative logarithm of the IC50 (pIC50) in assay [1] is 7.01. Moreover, in assay [2], the Kb is 6.46 nM.
In assay [1], `CCCCc1nn(CCCCC(=O)O)c(=O)n1Cc1ccc(-c2ccccc2-c2nn[nH]n2)cc1` [Compound 114] showed a negative-log IC50 (pIC50) of 6.40. The molecule also had a Kb in assay [2] of 398 nM.
Molecule `CCCCc1nc(CNC(=O)CCC(NC(C)=O)C(=O)OC(C)(C)C)nn1Cc1ccc(-c2ccccc2-c2nnn[nH]2)cc1` (stereo not shown) [Compound 52] had a pIC50 in assay [1] of 7.00. This molecule also showed a Kb in assay [2] of 7.24 nM.
In assay [1], `CCCCc1nc(CCCO)n(Cc2ccc(-c3ccccc3-c3nnn[nH]3)cc2)n1` [Compound 57] gave a pIC50 of 5.64. In addition, the antagonist dissociation constant (Kb) in assay [2] is 1000 nM.
In assay [1], `CCCCn1nc(C(=O)NC(C)(C)C)nc1Cc1ccc(-c2ccccc2-c2nnn[nH]2)nc1` [Compound 184] gave a negative logarithm of the IC50 (pIC50) of 5.96. For the same molecule, the antagonist dissociation constant (Kb) in assay [2] is 166 nM.
Take `CCCCc1nc(C)n(Cc2ccc(-c3ccccc3C(=O)O)cc2)n1` [Compound 88]: in assay [1], the negative logarithm of the IC50 (pIC50) is 7.30. Besides, in assay [2], the Kb is 20 nM.
In the same order, the values of `CCCCCCCCc1nc(CCCC)nn1Cc1ccc(-c2ccccc2-c2nnn[nH]2)cc1` [Compound 39] are 8.00 and 13.2 nM.
As to `CCCCc1cn(-c2c(C(C)C)cccc2C(C)C)c(=O)n1Cc1ccc(-c2ccccc2-c2nnn[nH]2)nc1` [Compound 246], the pIC50 in assay [1] was 7.14. Further, the antagonist dissociation constant (Kb) in assay [2] was 34.7 nM.
In assay [1], `CCCCc1nc(C(F)(F)C(F)(F)F)nn1Cc1ccc(-c2ccccc2-c2nnn[nH]2)cc1` [Compound 80] showed a pIC50 of 7.60. Further, the antagonist equilibrium constant (Kb) in assay [2] was 7.94 nM.
Turning to `CCCCc1nc(CC(CC)CC)nn1Cc1ccc(-c2ccccc2-c2nnn[nH]2)nc1` [Compound 262], the pIC50 in assay [1] was 6.28. The antagonist equilibrium constant (Kb) in assay [2] was 603 nM.
For the molecule `CCCCc1nn(CCCC)c(=O)n1Cc1ccc(-c2ccccc2-c2nnn[nH]2)cc1` [Compound 90], in assay [1], the pIC50 was 8.25. The antagonist equilibrium constant (Kb) in assay [2] was 1 nM.
Taken in the same sequence, the figures for `CCCCc1nc(Cc2ccc(-c3ccccc3C(=O)O)cc2)nn1CCCC` [Compound 138] were 6.89 and 6.31 nM.
`CCCCc1nc(C(F)(F)CCC)nn1Cc1ccc(-c2ccccc2-c2nnn[nH]2)nc1` [Compound 258] had a negative-log IC50 (pIC50) in assay [1] of 6.46. The Kb in assay [2] is 145 nM.
`CCCCc1cn(-c2c(C)cc(C(C)(C)C)cc2C)c(=O)n1Cc1ccc(-c2ccccc2-c2nnn[nH]2)nc1` [Compound 244] gave a pIC50 in assay [1] of 6.82. Also, the Kb in assay [2] is 67.6 nM.
Taken in the same sequence, the figures for `CCCCc1nn(CC(OCC(=O)O)c2ccccc2)c(=O)n1Cc1ccc(-c2ccccc2-c2nn[nH]n2)cc1` (stereo not shown) [Compound 102] were 7.37 and 20 nM.
In turn, `CCCCc1nc(CCc2ccccc2)nn1Cc1ccc(-c2ccccc2-c2nnn[nH]2)cc1` [Compound 37] showed a pIC50 in assay [1] of 6.47. The same molecule gave an antagonist dissociation constant (Kb) in assay [2] of 126 nM.
In the same order, the values of `CCCCc1nc(C2CCCCC2)n(Cc2ccc(-c3ccccc3-c3nnn[nH]3)cc2)n1` [Compound 76] are 5.27 and 3020 nM.
For the molecule `CCCCc1nc(CCCN)n(Cc2ccc(-c3ccccc3-c3nnn[nH]3)cc2)n1` [Compound 82], the pIC50 in assay [1] is 8.10. In assay [2], the Kb was 3.16 nM.
Take `CCCCc1nc(C(F)(F)CCC)n(Cc2ccc(-c3ccccc3-c3nnn[nH]3)cc2)n1` [Compound 22]: the negative-log IC50 (pIC50) in assay [1] is 6.34. Moreover, the antagonist dissociation constant (Kb) in assay [2] was 251 nM.
For the molecule `CCCCc1nc(Cc2ccc(-c3ccccc3-c3nnn[nH]3)cc2)n(CCCC)n1` [Compound 139], the pIC50 in assay [1] is 9.57. In addition, the Kb in assay [2] was 501 nM.
In assay [1], `CCCCc1nc(CC2CCCCC2)nn1Cc1ccc(-c2ccccc2-c2nnn[nH]2)cc1` [Compound 85] showed a pIC50 of 8.06. For the same molecule, the Kb in assay [2] is 1.26 nM.
`CCCCc1nc(CCCN)nn1Cc1ccc(-c2ccccc2-c2nnn[nH]2)cc1` [Compound 83] showed a pIC50 in assay [1] of 8.44. Also, the Kb in assay [2] is 5.01 nM.
On to `CCCCc1nn(C(Cc2ccccc2)C(=O)c2ccccc2)c(=O)n1Cc1ccc(-c2ccccc2-c2nn[nH]n2)cc1` (stereo not shown) [Compound 105], for which, in assay [1], the negative-log IC50 (pIC50) was 6.54. In assay [2], this molecule gave an antagonist dissociation constant (Kb) of 251 nM.
In turn, `CCCCc1cn(-c2ccccc2Cl)c(=O)n1Cc1ccc(-c2ccccc2-c2nnn[nH]2)nc1` [Compound 227] showed a pIC50 in assay [1] of 7.05. Further, the antagonist dissociation constant (Kb) in assay [2] was 28.2 nM.
As for `CCCc1nc(CCC)n(Cc2ccc(-c3ccccc3-c3nnn[nH]3)nc2)n1` [Compound 257], the pIC50 in assay [1] was 6.80. For the same molecule, in assay [2], the Kb is 234 nM.
In the case of `CCCCc1nc(CCCC)n(Cc2ccc(-c3ccccc3C(=O)O)cc2)n1` [Compound 13], the pIC50 in assay [1] was 7.77. This molecule gave a Kb in assay [2] of 2 nM.
In the same order, the values of `CCCCc1nc(CC(OCC)OCC)nn1Cc1ccc(-c2ccccc2-c2nnn[nH]2)cc1` [Compound 49] are 6.92 and 87.1 nM.
Regarding `CCCCCCn1nc(CCCC)n(Cc2ccc(-c3ccccc3-c3nn[nH]n3)cc2)c1=O` [Compound 96], the negative logarithm of the IC50 (pIC50) in assay [1] was 7.68. In addition, the antagonist equilibrium constant (Kb) in assay [2] is 10 nM.
In the same order, the values of `CCCCc1nc(C(F)(F)Cc2ccccc2)nn1Cc1ccc(-c2ccccc2-c2nnn[nH]2)cc1` [Compound 62] are 7.59 and 2.04 nM.
`CCCCc1nc(CNC(=O)OC(C)(C)C)n(Cc2ccc(-c3ccccc3-c3nnn[nH]3)cc2)n1` [Compound 45]: the negative-log IC50 (pIC50) in assay [1] was 8.36. This molecule showed a Kb in assay [2] of 3.89 nM.
Consider `CCCCc1nc(-c2ccccc2Cl)n(Cc2ccc(-c3ccccc3-c3nnn[nH]3)nc2)n1` [Compound 279], for which the pIC50 in assay [1] was 6.57. Further, the antagonist dissociation constant (Kb) in assay [2] was 8.71 nM.
For `CCCCc1ncnn1Cc1ccc(-c2ccccc2-c2nnn[nH]2)cc1` [Compound 64], the pIC50 in assay [1] is 7.27. Moreover, in assay [2], the Kb was 100 nM.
Regarding `CCCCc1nc(Cc2ccc(-c3ccccc3-c3nnn[nH]3)cc2)nn1CCCC` [Compound 140], the pIC50 in assay [1] was 10.51. This molecule had an antagonist dissociation constant (Kb) in assay [2] of 7.94 nM.
Take `CCCCc1ncn(Cc2ccc(-c3ccccc3-c3nnn[nH]3)cc2)n1` [Compound 65]: the pIC50 in assay [1] is 7.64. The molecule further showed an antagonist dissociation constant (Kb) in assay [2] of 14.1 nM.
In assay [1], `CCCCc1cn(-c2ccccc2Cl)c(=O)n1Cc1ccc(-c2ccccc2-c2nnn[nH]2)cc1` [Compound 146] gave a pIC50 of 10.14. The molecule also had an antagonist dissociation constant (Kb) in assay [2] of 398 nM.
Turning to `CCCCc1nc(C(F)F)nn1Cc1ccc(-c2ccccc2-c2nnn[nH]2)cc1` [Compound 58], in assay [1], the pIC50 was 6.85. For the same molecule, the Kb in assay [2] is 355 nM.
In the same order, the values of `CCCCn1nc(C(F)CCC)nc1Cc1ccc(-c2ccccc2-c2nnn[nH]2)nc1` (stereo not shown) [Compound 172] are 7.15 and 70.8 nM.
In the same order, the values of `CCCn1nc(C(F)(F)CC)nc1Cc1ccc(-c2ccccc2-c2nnn[nH]2)nc1` [Compound 178] are 7.06 and 28.8 nM.
As to `CCCCc1nc(CN)n(Cc2ccc(-c3ccccc3-c3nnn[nH]3)cc2)n1` [Compound 47], the pIC50 in assay [1] is 7.68. The same molecule had a Kb in assay [2] of 14.1 nM.
In the case of `CCCCc1nc(CNC(=O)OC(C)(C)C)nn1Cc1ccc(-c2ccccc2-c2nnn[nH]2)cc1` [Compound 46], the negative-log IC50 (pIC50) in assay [1] was 6.96. The same molecule had a Kb in assay [2] of 158 nM.
